According to ChEMBL document CHEMBL1156075, “5,5'- and 6,6'-dialkyl-5,6-dihydro-1H-pyridin-2-ones as potent inhibitors of HCV NS5B polymerase” (Bioorg Med Chem Lett, 2009):

Columns and labels:
[1] = system: Cynomolgus monkey; conditions: in vivo, iv, 1 mg/kg
[2] = in vitro; conditions: human, Huh7/C24 cells
Description: Cytotoxicity against human Huh7/C24 cells after 72 hrs by bDNA assay

[3] = Oral bioavailability in cynomolgus monkey at 1 mg/kg, po; type: ADME, organism-based, Macaca fascicularis; conditions: in vivo
[4] = Apparent permeability from apical to basolateral side in human Caco-2 cells at 10 uM after 3 hrs; type: ADME, cell-based
[5] = in vitro; conditions: human, liver microsomes
[6] = Clearance in cynomolgus monkey at 1 mg/kg, iv; type: ADME, organism-based, Macaca fascicularis; set-up: dose 1 mg/kg, route intravenous; conditions: in vivo
[7] = in vitro; conditions: cynomolgus monkey, liver microsomes
[8] = system: Cynomolgus monkey; conditions: in vivo, po, 1 mg/kg
[9] = system: Hepatitis C virus; experiment: microbe, parasite or virus in culture; conditions: genotype 1b, Huh-7, 72 h
[10] = Clearance in cynomolgus monkey at 1 […]; type: ADME, organism-based, Macaca fascicularis; set-up: dose 1 mg/kg; conditions: in vivo
[11] = in vitro; conditions: human, liver microsomes; remark: listed apart in the source
[12] = in vitro; conditions: human, liver microsomes; remark: listed apart in the source

| Compound | CC50 at 72 h [2] | half-life at 5 µM [5] | EC50 [9] | other results |
| --- | --- | --- | --- | --- |
| CS(=O)(=O)Nc1ccc2c(c1)S(=O)(=O)N=C(C1=C(O)[C@@H]3CCC[C@@H]3N(Cc3ccc(F)cc3)C1=O)N2 | > 100 µM | > 60 min | 0.016 µM | AUC [1]: 29100 ng·h/mL; bioavailability [3]: 21%; Papp A→B at 3 h, 10 µM [4]: 1.6 ×10⁻⁶ cm/s; clearance [6]: 0.63 mL/min/kg; half-life at 5 µM [7]: > 60 min; AUC [8]: 6040 ng·h/mL; CL/F [10]: 0.63 mL/min/kg |
| C[C@@]1(CCC2CC2)CN(C2CCC2)C(=O)C(C2=NS(=O)(=O)c3cc(NS(C)(=O)=O)ccc3N2)=C1O | > 1 µM | – | 0.15 µM | half-life at 5 µM [11]: 5.1 min; half-life at 5 µM [12]: > 60 min |
| CC(C)C[C@@H]1CC(O)=C(C2=NS(=O)(=O)c3cc(NS(C)(=O)=O)ccc3N2)C(=O)N1Cc1ccc(F)cc1 | – | > 60 min | 2.9 µM | – |
| CC(C)CC[C@]1(C)CN(C2CC2)C(=O)C(C2=NS(=O)(=O)c3cc(NS(C)(=O)=O)ccc3N2)=C1O | > 33 µM | 5.5 min | 0.097 µM | – |
| CC[C@@H]1CC(O)=C(C2=NS(=O)(=O)c3cc(NS(C)(=O)=O)ccc3N2)C(=O)N1Cc1ccc(F)cc1 | – | > 60 min | 0.97 µM | – |
| CC(C)CC[C@]1(C)CN(C2CCCC2)C(=O)C(C2=NS(=O)(=O)c3cc(NS(C)(=O)=O)ccc3N2)=C1O | > 33 µM | > 2.6 min | – | – |
| CC(C)CC[C@]1(C)CN(C2CCCCC2)C(=O)C(C2=NS(=O)(=O)c3cc(NS(C)(=O)=O)ccc3N2)=C1O | > 33 µM | > 3.6 min | 0.025 µM | – |
| CC(C)(C)CC[C@]1(C)CN(C2CCCCC2)C(=O)C(C2=NS(=O)(=O)c3cc(NS(C)(=O)=O)ccc3N2)=C1O | > 10 µM | – | 1.4 µM | half-life at 5 µM [11]: 1.4 min; half-life at 5 µM [12]: > 60 min |
| CC(C)=CC[C@H]1CN(Cc2ccc(F)cc2)C(=O)C(C2=NS(=O)(=O)c3cc(NS(C)(=O)=O)ccc3N2)=C1O | > 33 µM | 6.9 min | 0.67 µM | – |
| CC(C)CC[C@H]1CN(Cc2ccc(F)cc2)C(=O)C(C2=NS(=O)(=O)c3cc(NS(C)(=O)=O)ccc3N2)=C1O | > 33 µM | 6.5 min | 0.49 µM | – |
| CC(C)CC[C@@]1(C)CN(Cc2ccc(F)cc2)C(=O)C(C2=NS(=O)(=O)c3cc(NS(C)(=O)=O)ccc3N2)=C1O | > 33 µM | 5.7 min | 0.77 µM | – |
| CC(C)(C)CC[C@]1(C)CN(C2CCC2)C(=O)C(C2=NS(=O)(=O)c3cc(NS(C)(=O)=O)ccc3N2)=C1O | > 1 µM | – | 0.46 µM | half-life at 5 µM [11]: 3 min; half-life at 5 µM [12]: > 60 min |
| CS(=O)(=O)Nc1ccc2c(c1)S(=O)(=O)N=C(C1=C(O)C3(CCCC3)CN(Cc3ccc(F)cc3)C1=O)N2 | > 33 µM | 28 min | 2.1 µM | – |
| CS(=O)(=O)Nc1ccc2c(c1)S(=O)(=O)N=C(C1=C(O)C[C@@H](c3ccc(F)cc3)N(Cc3ccc(F)cc3)C1=O)N2 | > 10 µM | > 60 min | 0.52 µM | – |
| CC[C@H]1CC(O)=C(C2=Nc3ccc(NS(C)(=O)=O)cc3S(=O)(=O)N2)C(=O)N1Cc1ccc(F)cc1 | > 1 µM | > 60 min | 0.083 µM | – |
| CC(C)CC[C@]1(C)CN(C2CCC2)C(=O)C(C2=NS(=O)(=O)c3cc(NS(C)(=O)=O)ccc3N2)=C1O | > 10 µM | 2.2 min | 0.014 µM | AUC [1]: 3560 ng·h/mL; bioavailability [3]: 16%; Papp A→B at 3 h, 10 µM [4]: 2.9 ×10⁻⁶ cm/s; clearance [6]: 4.7 mL/min/kg; half-life at 5 µM [7]: 55 min; AUC [8]: 556 ng·h/mL; CL/F [10]: 4.7 mL/min/kg |
| CC(C)/C=C/C[C@@H]1CN(C2CCCC2)C(O)C(C2=NS(=O)(=O)c3cc(NS(C)(=O)=O)ccc3N2)=C1O (stereo not given in full) | > 33 µM | 35 min | 0.24 µM | – |
| CS(=O)(=O)Nc1ccc2c(c1)S(=O)(=O)N=C(C1=C(O)CC3(CCCC3)N(Cc3ccc(F)cc3)C1=O)N2 | > 33 µM | > 60 min | 0.84 µM | – |
| CC(C)CC[C@@H]1CC(O)=C(C2=NS(=O)(=O)c3cc(NS(C)(=O)=O)ccc3N2)C(=O)N1Cc1ccc(F)cc1 | – | 7.6 min | 5.5 µM | – |
| CC(C)CC[C@@H]1CN(C2CCCC2)C(=O)C(C2=NS(=O)(=O)c3cc(NS(C)(=O)=O)ccc3N2)=C1O | > 33 µM | 32 min | 0.043 µM | – |
| C[C@@]1(Cc2ccc(F)cc2)CN(C2CC2)C(=O)C(C2=NS(=O)(=O)c3cc(NS(C)(=O)=O)ccc3N2)=C1O | > 33 µM | – | 2.1 µM | – |

| Compound | CC50 at 72 h [2] | half-life at 5 µM [5] | EC50 [9] | other results |
| --- | --- | --- | --- | --- |
| CC1(C)CN(Cc2ccc(F)cc2)C(=O)C(C2=NS(=O)(=O)c3cc(NS(C)(=O)=O)ccc3N2)=C1O | > 33 µM | > 60 min | 1.3 µM | – |
| C[C@@]1(CCC2CC2)CN(C2CCCC2)C(=O)C(C2=NS(=O)(=O)c3cc(NS(C)(=O)=O)ccc3N2)=C1O | > 10 µM | – | 0.17 µM | half-life at 5 µM [11]: 3.7 min; half-life at 5 µM [12]: > 60 min |
| CCC[C@]1(C)CN(C2CCC2)C(=O)C(C2=NS(=O)(=O)c3cc(NS(C)(=O)=O)ccc3N2)=C1O | – | – | 8.5 µM | half-life at 5 µM [11]: 2.8 min; half-life at 5 µM [12]: > 60 min |
| CC[C@@]1(C)CN(Cc2ccc(F)cc2)C(=O)C(C2=NS(=O)(=O)c3cc(NS(C)(=O)=O)ccc3N2)=C1O | > 1 µM | > 60 min | 0.16 µM | – |
| CC[C@@]1(CCC(C)C)CN(C2CCCC2)C(=O)C(C2=NS(=O)(=O)c3cc(NS(C)(=O)=O)ccc3N2)=C1O | > 1 µM | – | 0.3 µM | half-life at 5 µM [11]: 3 min; half-life at 5 µM [12]: > 60 min |
| CC(C)CC[C@]1(C)CN(c2ccccc2)C(=O)C(C2=NS(=O)(=O)c3cc(NS(C)(=O)=O)ccc3N2)=C1O | – | > 2.3 min | – | – |
| CS(=O)(=O)Nc1ccc2c(c1)S(=O)(=O)N=C(C1=C(O)C3(CC3)CN(Cc3ccc(F)cc3)C1=O)N2 | > 1 µM | > 60 min | 0.55 µM | – |
| CS(=O)(=O)Nc1ccc2c(c1)S(=O)(=O)N=C(C1=C(O)C3(CCC3)CN(Cc3ccc(F)cc3)C1=O)N2 | > 33 µM | > 60 min | 0.77 µM | – |
| CC(C)(C)[C@H]1CC(O)=C(C2=NS(=O)(=O)c3cc(NS(C)(=O)=O)ccc3N2)C(=O)N1Cc1ccc(F)cc1 | > 10 µM | > 60 min | 0.81 µM | – |
| CCCC[C@]1(C)CN(C2CCC2)C(=O)C(C2=NS(=O)(=O)c3cc(NS(C)(=O)=O)ccc3N2)=C1O | – | – | > 10 µM | half-life at 5 µM [11]: 3 min; half-life at 5 µM [12]: > 60 min |
| CS(=O)(=O)Nc1ccc2c(c1)S(=O)(=O)N=C(C1=C(O)[C@@H](Cc3ccc(F)cc3)CN(Cc3ccc(F)cc3)C1=O)N2 | > 33 µM | > 60 min | 3.6 µM | – |
| CC(C)[C@H]1CC(O)=C(C2=NS(=O)(=O)c3cc(NS(C)(=O)=O)ccc3N2)C(=O)N1Cc1ccc(F)cc1 | > 1 µM | > 60 min | 0.045 µM | – |
| C[C@@]1(Cc2ccc(F)cc2)CN(C2CCCC2)C(=O)C(C2=NS(=O)(=O)c3cc(NS(C)(=O)=O)ccc3N2)=C1O | > 33 µM | – | 14 µM | – |
| C#CC[C@]1(C)CN(C2CCCC2)C(=O)C(C2=NS(=O)(=O)c3cc(NS(C)(=O)=O)ccc3N2)=C1O | > 33 µM | 43 min | 2.9 µM | – |
| CC(C)(C)CC[C@]1(C)CN(C2CCCC2)C(=O)C(C2=NS(=O)(=O)c3cc(NS(C)(=O)=O)ccc3N2)=C1O | > 10 µM | – | 0.31 µM | half-life at 5 µM [11]: 1.6 min; half-life at 5 µM [12]: > 60 min |
| C[C@]1(CC2CC2)CN(Cc2ccc(F)cc2)C(=O)C(C2=NS(=O)(=O)c3cc(NS(C)(=O)=O)ccc3N2)=C1O | > 33 µM | > 60 min | 0.2 µM | – |
| CCC(CC)[C@@H]1CC(O)=C(C2=NS(=O)(=O)c3cc(NS(C)(=O)=O)ccc3N2)C(=O)N1Cc1ccc(F)cc1 | > 1 µM | 59 min | 0.31 µM | – |
| CC(C)(C)CC[C@]1(C)CN(C2CC2)C(=O)C(C2=NS(=O)(=O)c3cc(NS(C)(=O)=O)ccc3N2)=C1O | > 10 µM | 10 min | 0.33 µM | – |
| CS(=O)(=O)Nc1ccc2c(c1)S(=O)(=O)N=C(C1=C(O)C[C@H](c3ccccc3)N(Cc3ccc(F)cc3)C1=O)N2 | > 10 µM | > 60 min | 0.66 µM | – |
| CS(=O)(=O)Nc1ccc2c(c1)S(=O)(=O)N=C(C1=C(O)CCN(Cc3ccc(F)cc3)C1=O)N2 | > 33 µM | > 60 min | 3.9 µM | – |
